These results are taken from patent US20120329731A1 (priority 2006, published 2012).

Structures are written as SMILES. Like-named read-outs stand apart in the source and are kept apart here.

For series [1], the system named is cyanide poisoning. The arrangement: species or system mice. Conditions: mouse, in vivo.
The subject of series [2] is righting reflex. Conditions: mouse, in vivo, ip.

For `CCOC(=O)C1(O)CSC(O)(C(=O)OCC)CS1` (stereo not shown) [PD 2, 2,5-Dihydroxy-2,5-dicarbethoxy-1,4-dithiane], in series [1], the “% S (percent survivors)” value was determined as 100% and the “P.I. (protective index: recovery time CN-treated / recovery time PD-treated)” value is 7.6. Moreover, in series [1] (ip), the “Protective Indices compared with the combination of nitrite and thiosulfate” value is reported as “generally superior”. Moreover, in series [1] (po), the “% S (percent survivors)” value was 100% and the “antidotal activity when administered by the oral route” value was “retain their antidotal activity”. Further, the “Screen Righting time (Ave ± SE)” value in series [2] worked out at 21.2 ± 1.2 s.
As to `O.O.O.O.O=C(O)C1(O)CSC(O)(C(=O)O)CS1.[Na].[Na]` (stereo not shown) [13 (X = Na), Disodium 2,5-dihydroxy-1,4-dithiane-2,5-dicarboxylic acid tetrahydrate], in series [1], the “% S (percent survivors)” value is 100%, the “P.I. (protective index)” value was determined as 4.0 and the “Screen Righting time (Ave ± SE)” value is 17.0 ± 3.3 min. In series [1] (po), the “% S (percent survivors)” value came to 100%. In addition, the “Screen Righting time (Ave ± SE)” value in series [2] came out at 14.0 ± 2.3 s.
Turning to `C/C1=C2/[N-][C@H]([C@H](CC(N)=O)[C@@]2(C)CCC(=O)NC[C@@H](C)OP(=O)([O-])O[C@H]2[C@@H](O)[C@@H](n3cnc4cc(C)c(C)cc43)O[C@@H]2CO)[C@]2(C)N=C(/C(C)=C3N=C(/C=C4N=C1[C@@H](CCC(N)=O)C\4(C)C)[C@@H](CCC(N)=O)[C@]\3(C)CC(N)=O)[C@@H](CCC(N)=O)[C@]2(C)CC(N)=O.[Co+3].[OH-]` [H, Hydroxocobalamin, reference compound], in series [1], the “% S (percent survivors)” value is listed as 100% and the “P.I. (protective index: recovery time CN-treated / recovery time PD-treated)” value is 5.2. Besides, in series [2], the “Screen Righting time (Ave ± SE)” value came to 7.1 ± 0.6 s.
As to `N[C@@H](CCC(=O)N[C@@H](CSSC[C@H](N)C(=O)O)C(=O)NCC(=O)O)C(=O)O` [CySSG, reference compound], in series [1], the “% S (percent survivors)” value is reported as 100%, the “P.I. (protective index)” value is on record as 2.5 and the “Screen Righting time (Ave ± SE)” value amounted to 27.7 ± 2.7 min. The “% S (percent survivors)” value in series [1] (po) is on record as 100%. Further, the “Screen Righting time (Ave ± SE)” value in series [2] is 8.8 ± 2.2 s.
